Patent US20110124607A1, “COMPOSITION FOR REGULATION CELLULAR SENESCENCE COMPRISING LYSOPHOSPHATIDIC ACID AND INHIBITOR OF ADENYLYL CYCLASE AS ACTIVE INGREDIENTS” (priority 2008, published 2011)
Where two headings read alike, the source gives them in different places.

Experiments:
[1] = tested on: senescent cells (human fibroblasts); assay: Microscope observation of morphology of senescent cells; type: cell-based; conditions: day 4
Experimental: In the meantime, when senescent cells were treated with ACI, p21 expression was reduced on day 2 and day 4. […] Microscope observation also confirmed that young cell like cells were increased compared with the control (untreated senescent cells are bigger in size, so that less cells can be observed under microscope, compared with treated senescent cells). […] So was cyclin D1 expression (FIG. 3B). […] Thus, when senescent cells were treated with ACI, p21 and cyclin D1 expressions were reduced and thereby DNA synthesis in senescent cell increased to induce cell proliferation.

[2] = tested on: senescent cells (human fibroblasts); assay: Cell cycle analysis by flow cytometry (S phase entry), senescent cells; type: cell-based; conditions: 30 μM LPA, 300 μM ACI, 1, 2, 4 days
Experimental: (§1) At this time, cell numbers regarded as significant compared with that of the control were presented in (A) and (B) (p<0.001). Cell cycle in (C) was analysed by flow cytometry. The percentage of cells entered S phase was averaged of three repeated measurements (p<0.001). Young and senescent cells were treated with 30 μM of LPA, 300 μM of ACI, LPA+ACI, 10 mM of AMPKI or 10 mM of AICAR, followed by culture for 1, 2, and 4 days. To analyze cell cycle, the cells were washed with buffer twice and then the cells were centrifuged using 0.25% trypsin, followed by fixation in cold 70% ethanol. Analysis was performed by flow cytometry (Becton Dickinson FACSorter) using […] of PI containing RNase. Cell proliferation and cAMP level were increased by LPA in senescent cells (Yeo et al., 2002). The AC inhibitor (ACI) was added to reduce cAMP which had been increased by LPA. And then, cell proliferation was investigated. Cells were cultured in serum-free medium for 2 days to arrest them in G0/G1 phase. Then, the cells were treated with LPA, ACI or LPA+ACI. Total cell number was measured on day 1, day 2 and day 4, or the cells entered into S phase were counted to evaluate cell proliferation. When young cells were treated with 300 μM of ACI, cell proliferation was reduced, compared with control (FIG. 1A). […]

[3] = tested on: PKA; assay: PKA activity in cells; type: cell-based, human
[4] = tested on: young cells (human fibroblasts); assay: Cell proliferation by counting live cells (trypan blue), young cells; type: cell-based; conditions: serum-starved 2 days, counted day 1, 2, 4, 30 μM LPA, 300 μM ACI, 10 mM AMPKI, 10 mM AICAR
Experimental: (§2) Human fibroblasts were prepared by primary culture of foreskin of a newborn baby (Boyce and Ham, 1983). The primary culture was performed in DMEM supplemented with 10% FBS and 1% antibiotics. The protein contents of young cells from the early stage of sub-culture, with a population doubling (PD) of less than 25, were compared to those of at least PD 65-70 senescent cells. […] In senescent cells, the activity of beta-galactosidase was increased and cell proliferation was reduced (Yeo et al., 2000).
(§3) Prior to LPA and ACI treatment, cells were grown for 1-2 days to 60-70% sub-confluence in DMEM-containing culture medium, and then serum-starved to quiescence (that is Go/G1 arrest) by incubation in a serum-free medium containing 0.1% bovine serum albumin (BSA) for 2 days. Young and senescent cells were treated with LPA, ACI, LPA+ACI, AMPKI and AICAR, respectively. Live cells were measured after staining the cells with trypan blue on day 1, day 2 and day 4 to confirm cell proliferation.
(§4) Cell proliferation and cAMP level were increased by LPA in senescent cells (Yeo et al., 2002). The AC inhibitor (ACI) was added to reduce cAMP which had been increased by LPA. And then, cell proliferation was investigated. Cells were cultured in serum-free medium for 2 days to arrest them in G0/G1 phase. Then, the cells were treated with LPA, ACI or LPA+ACI. Total cell number was measured on day 1, day 2 and day 4, or the cells entered into S phase were counted to evaluate cell proliferation. When young cells were treated with 300 μM of ACI, cell proliferation was reduced, compared with control (FIG. 1A). In the meantime, when senescent cells were treated with 300 μM of ACI, cell proliferation was increased, compared with control (FIG. 1B).

[5] = tested on: senescent cells (human fibroblasts); assay: Cell proliferation by counting live cells (trypan blue), senescent cells; type: cell-based; conditions: serum-starved 2 days, counted day 1, 2, 4, 30 μM LPA, 300 μM ACI, 10 mM AMPKI, 10 mM AICAR
Experimental: as §2, §3, §4

[6] = tested on: young cells (human fibroblasts); assay: Cell cycle analysis by flow cytometry (S phase entry), young cells; type: cell-based; conditions: 30 μM LPA
Experimental: as §1

[7] = tested on: cAMP; conditions: cited from earlier work

Compound | change of senescent cells into young cell like cells [1] | cell number entered into S phase [2] | PKA activity ([3]; senescent cells) | PKA activity ([3]; young cells) | cell proliferation (cell number) compared with control [4] | cell proliferation (cell number) compared with control [5] | S phase entry [6] | cAMP level ([7]; senescent cells (Yeo et al., 2002)) | cAMP level ([7]; young cells (Jang et al., 2006b))
Nc1ncnc2c1ncn2C1CCCO1 (centres unmarked) [ACI, 9-(tetrahydro-2′-furyl)adenine] | most cells were changed into young cell like cells | increased | completely inhibited | completely inhibited | reduced | increased |  |  | 
lysophosphatidic acid [LPA] |  |  |  |  | increased | increase | promotion of S phase entry | increased | down-regulated
